The values that follow are results of earlier work, collected in US12404524B2, “Expression vector” (priority 2019, dated 2025).

The subject of the series is common Streptomyces expression strains. Conditions: inducers of Potr and PnitA in single-gene expression experiments.

As to `CN(C)[C@@H]1C(O)=C(C(N)=O)C(=O)[C@@]2(O)C(O)=C3C(=O)c4c(O)cccc4[C@@](C)(O)[C@H]3[C@H](O)[C@@H]12` [oxytetracycline], the “effect on physiology or growth rate” value is recorded as “no effect”. Consider `O=C1CCCCCN1` [ε-caprolactam], for which the “effect on physiology or growth rate” value was “no effect”.
